One series deals with HT-29 cells. Put plainly: Additional cytotoxicity assays, resazurin (Table 3.1). Format: cell-based, human. To be noted: for EC50: Homo sapiens. Here is the method:
10× concentrated serial dilutions of the two compounds were prepared in appropriate culture medium for final concentrations ranging from 2.0×10^−5 M to 2.0×10^−10 M. Ten μl volumes of the 10× serial dilutions were added to the test wells in triplicate and the plates returned to the incubator for 48 hours.
Following 48 hours of drug exposure 10 μl of 0.2 mg/ml resazurin (obtained from Sigma-Aldrich Chemical Co.) in Mg^2+, Ca^2+ free PBS was added to each well and the plates were returned to the incubator for 3-4 hours. […] Resazurin dye without cells was used to determine the background, which was subtracted from the data for all experimental wells. The data were analyzed using Prism software (GraphPad Software).
Additional cytotoxicity assays were performed as described above under this example, using Resazurin fluorescence as an indicator of cell viability.
In general terms: Alamar Blue is a resazurin reagent that responds to reducing activity.

Series [1] deals with HT-29 human colorectal carcinoma cells. Put plainly: Cell growth inhibition assay, resazurin (Table 3.2). Type of series: cell-based. Here is the method:
The cytotoxic effects of various derivatives of dehydrophenylahistin against HT-29 human colorectal carcinoma cells were determined.
HT-29 cells (ATCC; HTB-38) were maintained in ATCC recommended culture media and cultured in an incubator at 37° C. in 5% CO2 and 95% humidified air.
For cell growth inhibition assays, HT-29 cells were seeded at 5×10^3 cells/well in 90 μl complete media into a Corning 3904 black-walled, clear-bottom tissue culture plates and the plates were incubated overnight to allow cells to establish and enter log phase growth. 20 mM stock solutions of compounds were prepared in 100% DMSO and stored at −80° C. 10× concentrated serial dilutions of the compounds were prepared in culture medium for final concentrations ranging from 20 μM to […]. Ten μl volumes of the 10× serial dilutions were added to the test wells in triplicate and the plates returned to the incubator for 48 hours. The final concentration of DMSO was 0.25% in all samples.
Following 48 hours of drug exposure, 10 μl of 0.2 mg/ml resazurin (obtained from Sigma-Aldrich Chemical Co.) in Mg^2+, Ca^2+ free phosphate buffered saline was added to each well and the plates were returned to the incubator for 3-4 hours. […] Resazurin dye in medium without cells was used to determine the background, which was subtracted from the data for all experimental wells.

In another series the test system is HT-29 human colon cells. Put plainly: Tumor cytotoxicity assay, resazurin fluorescence, 48 h (Example 6). Format: cell-based. Particulars: for EC50: Homo sapiens; for cytotoxic activity against HT-29 cells / activity compared with tBu-dehydroPLH: in words.
Setting [2] is: HT-29, Table 3.1, read-out: EC50 (M) Mean.
[3] abbreviates: Table 3.2, HT-29 cells, read-out: EC50 (M) Mean.
Where [4] appears, read: HT-29, Table 3, read-out: EC50 (nM) HT-29.
[5] abbreviates: HT-29, Table 5, synthetic potent dehydroPLH derivatives, read-out: EC50.
Where [6] appears, read: Table 7, electron-withdrawing group, proliferation of HT-29 cells, read-out: EC50.
Where [7] appears, read: Table 8, electron-donating group, proliferation of HT-29 cells, read-out: EC50.
[8] abbreviates: Table 11, replacement with the heteroaryl ring, proliferation of HT-29 cells, read-out: EC50.

Like-named read-outs stand apart in the source and are kept apart here.

For orientation: EC50 means the concentration at which the effect is half-maximal.

For the molecule `Cc1c(F)cccc1/C=c1\[nH]c(=O)/c(=C/c2nc[nH]c2C(C)(C)C)[nH]c1=O` [Compound 2435, tBu-delta-PLH-2-Me-3-F], the EC50 in the series with HT-29 cells (setting [2]) was 3.34e-08 M. Further, the “% cytotox Mean” value in the series with HT-29 cells (Table 3.1) is 86%.
The matching figures for `Cc1ccc(F)c(/C=c2\[nH]c(=O)/c(=C/c3nc[nH]c3C(C)(C)C)[nH]c2=O)c1` [Compound 2436, tBu-delta-PLH-2-F-5-Me]: 2.5e-08 M and 86%.
For `Cc1cccc(/C=c2\[nH]c(=O)/c(=C/c3nc[nH]c3C(C)(C)C)[nH]c2=O)c1C` [Compound 2439, tBu-delta-PLH-2,3-di-Me] the same measures were 2.96e-09 M and 87%.
The matching figures for `COc1cccc(/C=c2\[nH]c(=O)/c(=C/c3nc[nH]c3C(C)(C)C)[nH]c2=O)c1[N+](=O)[O-]` [Compound 2441, tBu-delta-PLH-2-NO2-3-OMe]: 6.63e-07 M and 83%.
`Cc1ccc(C)c(/C=c2\[nH]c(=O)/c(=C/c3nc[nH]c3C(C)(C)C)[nH]c2=O)c1` [Compound 2442, tBu-delta-PLH-2,5-diMe]: in the series on HT-29 cells (setting [2]), the EC50 amounted to 8.82e-08 M. In the series with HT-29 cells (Table 3.1), the “% cytotox Mean” value amounted to 87%.
The matching figures for `COc1cccc(/C=c2\[nH]c(=O)/c(=C/c3nc[nH]c3C(C)(C)C)[nH]c2=O)c1N` [Compound 2455, tBu-delta-PLH-2-NH2-3-OMe]: 3.49e-07 M and 87%.
For `CC(C)(C)c1[nH]cnc1/C=c1\[nH]c(=O)/c(=C/c2ccccc2N)[nH]c1=O` [Compound 2457, tBu-delta-PLH-2-NH2] the same measures were 4.32e-07 M and 86%.
For `CC(C)(C)c1[nH]cnc1/C=c1\[nH]c(=O)/c(=C/c2cccc(N)c2)[nH]c1=O` [Compound 2458, tBu-delta-PLH-m-NH2], the EC50 with HT-29 cells (HT-29, read-out: EC50 (M) Mean) was determined as 3.1e-08 M. Also, the “% cytotox Mean” value in the series on HT-29 cells (Table 3.1) is 87%.
For the molecule `CC(C)(C)c1[nH]cnc1/C=c1\[nH]c(=O)/c(=C/c2sccc2B(O)O)[nH]c1=O` [Compound 2459, tBu-delta-PLH-3-B(OH)2-2-thienyl], the EC50 in the series on HT-29 cells (setting [2]) was 2.53e-08 M. Also, in the series on HT-29 cells (Table 3.1), the “% cytotox Mean” value is listed as 88%.
As to `CC(C)(C)c1[nH]cnc1/C=c1\[nH]c(=O)/c(=C/c2cc(Cl)ccc2N)[nH]c1=O` [Compound 2461, tBu-delta-PLH-5-Cl-2-NH2], the EC50 in series [1] (setting [3]) came to 2.95e-07 M.
As for `COc1cccc(/C=c2\[nH]c(=O)/c(=C/c3ncoc3C(C)(C)C)[nH]c2=O)c1` [Compound 2462, tBu-Oxadelta-PLH-m-OMe], the EC50 in series [1] (HT-29, read-out: EC50 (M) Mean) was 5.41e-08 M.
The same measure, in the same setting: the result for `CC(C)(C)c1ocnc1/C=c1\[nH]c(=O)/c(=C/c2cccc3ccccc23)[nH]c1=O` [Compound 2464, tBu-Oxadelta-PLH-1-naphth] reads 5.37e-08 M.
`CC(C)(C)c1ocnc1/C=c1\[nH]c(=O)/c(=C/c2ccccc2Cl)[nH]c1=O` [Compound 2465, tBu-Oxadelta-PLH-2-Cl]: the EC50 in series [1] (setting [3]) amounted to 5.4e-08 M.
Take `Cc1cccc(/C=c2\[nH]c(=O)/c(=C/c3ncoc3C(C)(C)C)[nH]c2=O)c1` [Compound 2466, tBu-Oxadelta-PLH-3-CH3]: the EC50 in series [1] (HT-29, read-out: EC50 (M) Mean) is 5.55e-08 M.
On to `COc1cc(/C=c2\[nH]c(=O)/c(=C/c3nc[nH]c3C(C)(C)C)[nH]c2=O)cc(OC)c1` [KPU-16, tBu-ΔPLH-3,5-diOMe], for which the EC50 in the series on HT-29 human colon cells (setting [4]) and in the series with HT-29 human colon cells (setting [5]) was 42 nM each time. Also, in the series with HT-29 human colon cells, the “cytotoxic activity against HT-29 cells” value is on record as “showed high activity”.
Regarding `CC(C)(C)c1[nH]cnc1/C=c1\[nH]c(=O)/c(=C/c2cc([N+](=O)[O-])ccc2Cl)[nH]c1=O` [KPU-21, tBu-ΔPLH-2Cl-5-NO2], the EC50 in the series on HT-29 human colon cells (setting [4]) and with HT-29 human colon cells (setting [6]) was 51 nM in each case.
With `CC(C)(C)c1[nH]cnc1/C=c1\[nH]c(=O)/c(=C/c2ccc3c(c2)OCO3)[nH]c1=O` [KPU-22, tBu-ΔPLH-3,4-methylene-dioxy], the EC50 with HT-29 human colon cells (setting [4]) and in the series on HT-29 human colon cells (setting [7]) was 82 nM throughout.
For the molecule `COc1cccc(/C=c2\[nH]c(=O)/c(=C/c3nc[nH]c3C(C)(C)C)[nH]c2=O)c1O` [KPU-23, tBu-ΔPLH-2-OH-3-OMe (o-vanillin)], the EC50 in the series on HT-29 human colon cells (setting [4]) and in the series on HT-29 human colon cells (setting [7]) was 5870 nM each time.
As to `COc1cccc2cc3c(=O)[nH]/c(=C\c4nc[nH]c4C(C)(C)C)c(=O)n3c12` [KPU-24, tBu-ΔPLH-cyclized-3-MeO], the EC50 came out at 7040 nM in the series on HT-29 human colon cells (setting [4]) and 7040 nM in the series on HT-29 human colon cells (Table 6, proliferation of HT-29 cells, read-out: EC50).
In the case of `Cc1ccc(/C=c2\[nH]c(=O)/c(=C/c3nc[nH]c3C(C)(C)C)[nH]c2=O)s1` [KPU-27, tBu-ΔPLH-5-Me-2-thienyl], the EC50 with HT-29 human colon cells (setting [4]) and in the series on HT-29 human colon cells (setting [8]) was 80 nM in each case.
For the molecule `Cc1ccsc1/C=c1\[nH]c(=O)/c(=C/c2nc[nH]c2C(C)(C)C)[nH]c1=O` [KPU-29, tBu-ΔPLH-3-Me-2-thienyl], the EC50 in the series with HT-29 human colon cells (setting [4]) and in the series on HT-29 human colon cells (setting [5]) was 44 nM in each case. In addition, the “cytotoxic activity against HT-29 cells” value with HT-29 human colon cells is recorded as “exhibited activity”.
As for `CC(C)(C)c1[nH]cnc1/C=c1\[nH]c(=O)/c(=C/c2cccc3c2OCO3)[nH]c1=O` [KPU-30, tBu-ΔPLH-2,3-methylendioxy], the EC50 in the series on HT-29 human colon cells (setting [7]) was determined as 477 nM.
Take `Cc1cccc(/C=c2\[nH]c(=O)/c(=C/c3nc[nH]c3C(C)(C)C)[nH]c2=O)n1` [KPU-33, tBu-ΔPLH-3-Me-2-pyridyl]: the EC50 in the series with HT-29 human colon cells (setting [8]) was more than 20000 nM.
On the same count and under the same terms, the result for `Cc1[nH]cnc1/C=c1\[nH]c(=O)/c(=C/c2nc[nH]c2C(C)(C)C)[nH]c1=O` [KPU-36, tBu-ΔPLH-5-Me-4-im] reads 2790 nM.
Turning to `CC(C)(C)c1[nH]cnc1/C=c1\[nH]c(=O)/c(=C/c2ccc(C#N)cc2)[nH]c1=O` [KPU-43, tBu-ΔPLH-p-CN], in the series on HT-29 human colon cells (setting [6]), the EC50 was more than 20000 nM.
Consider `COc1cc(OC)c(/C=c2\[nH]c(=O)/c(=C/c3nc[nH]c3C(C)(C)C)[nH]c2=O)c(OC)c1` [KPU-45, tBu-ΔPLH-2,4,6-TriOMe], for which the “cytotoxic activity against HT-29 cells” value in the series with HT-29 human colon cells is “also showed activity”.
As for `CC(C)(C)c1[nH]cnc1/C=c1\[nH]c(=O)/c(=C/c2cc(Cl)ccc2[N+](=O)[O-])[nH]c1=O` [KPU-52, tBu-ΔPLH-2-NO2-5-Cl], the EC50 with HT-29 human colon cells (setting [6]) was 110 nM.
In the case of `COc1ccc(O)c(/C=c2\[nH]c(=O)/c(=C/c3nc[nH]c3C(C)(C)C)[nH]c2=O)c1` [KPU-54, tBu-ΔPLH-2-OH-5-OMe], the EC50 with HT-29 human colon cells (setting [7]) was more than 20000 nM.
Consider `COc1ccc(/C=c2\[nH]c(=O)/c(=C/c3nc[nH]c3C(C)(C)C)[nH]c2=O)cc1O` [KPU-57, tBu-delta-PLH-3-OH-4-OMe], for which the EC50 in the series on HT-29 human colon cells (setting [7]) is more than 20000 nM.
Same read-out and setting: the result for `COc1ccc(/C=c2\[nH]c(=O)/c(=C/c3nc[nH]c3C(C)(C)C)[nH]c2=O)c(O)c1` [KPU-58, tBu-ΔPLH-2-OH-4-OMe] reads more than 20000 nM.
In the case of `CC(C)(C)c1[nH]cnc1/C=c1\[nH]c(=O)/c(=C/c2ccc(Cl)s2)[nH]c1=O` [KPU-61, tBu-ΔPLH-5-Cl-2-thionyl], a half-maximal response in the series with HT-29 human colon cells (HT-29, Table 11, replacement with the heteroaryl ring, proliferation of HT-29 cells) (EC50) required 184 nM.
On to `Cn1cccc1/C=c1\[nH]c(=O)/c(=C/c2nc[nH]c2C(C)(C)C)[nH]c1=O` [KPU-63, tBu-ΔPLH-N-Me-2-pyrrole], for which the EC50 in the series on HT-29 human colon cells (setting [8]) stood at 105 nM.
For `CC(C)(C)c1[nH]cnc1/C=c1\[nH]c(=O)/c(=C/c2cccc(OC(F)(F)F)c2)[nH]c1=O` [KPU-80, TBu-ΔPLH-m-OCF3], the EC50 with HT-29 human colon cells (setting [5]) came out at 13 nM. Moreover, the “activity compared with tBu-dehydroPLH” value with HT-29 human colon cells was “higher activity than tBu-dehydroPLH”.
For `COc1ccc(F)c(/C=c2\[nH]c(=O)/c(=C/c3nc[nH]c3C(C)(C)C)[nH]c2=O)c1` [KPU-81, TBu-ΔPLH-2-F-5-OMe], the EC50 in the series on HT-29 human colon cells (setting [5]) is 19 nM. Also, the “activity compared with tBu-dehydroPLH” value in the series with HT-29 human colon cells is “higher activity than tBu-dehydroPLH”.
Take `Cc1cccc(/C=c2\[nH]c(=O)/c(=C/c3nc[nH]c3C(C)(C)C)[nH]c2=O)c1C` [KPU-90, 3-{(Z)-1-[5-(tert-Butyl)-1H-4-imidazolyl]methylidene}-6-[(Z)-1-(2,3-dimethylphenyl)methylidene]-2,5-piperazinedione]: in the series on HT-29 human colon cells, the “potency relative to dehydroPLH” value stood at 16 times. Moreover, the “potency relative to tBu-dehydroPLH” value in the series on HT-29 human colon cells came out at 4 times. For the same molecule, the EC50 in the series with HT-29 human colon cells (setting [5]) is 3 nM; with HT-29 human colon cells (HT-29, text to Table 5, most potent compound, read-out: EC50 value), 3 nM.
As for `CC(C)(C)c1[nH]cnc1/C=c1\[nH]c(=O)/c(=C/c2ccccc2)[nH]c1=O` [tBu-dehydrophenylahistin, 3-Z-Benzylidene-6-(5″-tert-butyl-1H-imidazol-4″-Z-ylmethylene)-piperazine-2,5-dione], in the series on HT-29 human colon cells (Table 1 text), the “greater cytotoxic activity in comparison with dehydrophenylahistin” value is approximately 4 times.
